The values below come from patent US12291515B2, “Pyrrolidine derivative and use thereof” (Rushi Biotech (Hangzhou) Co., Ltd, priority 2021, dated 2025).

SMILES strings stand for the structures.

Holding throughout (format): cell-based
Assay [1] relates to Human lung adenocarcinoma cell A549. In words: CCK-8 cell proliferation assay, A549. Conditions: A549 cells, CCK-8, 24 hrs with drug, OD 450 nm. As to the method:
(§1) The effect of samples on the proliferation of human tumor cells in vitro was determined by CCK-8 cell proliferation assay.
(§2) The cells were assayed through a method including the following steps:
(§3) 1) The cells were digested, counted, and prepared into a cell suspension in a corresponding culture medium (Table 1) (5×10^4 cells/ml for CFPAC-1 and RPMI 8226, and 3.5×10^4 cells/ml for rest cells). The cell suspension was added to each well of a 96-well plate in 100 μl well.
(§4) 2) Then the 96-well plate was incubated for 24 hrs in an incubator at 37° C. and 5% CO2.
(§5) 3) The drug was diluted with the culture medium to the required working concentration. 100 μl of the corresponding drug containing medium was added to each well. A negative control group (added with drug-free culture medium) was also set.
(§6) 4) Then the 96-well plate was incubated for 24 hrs in an incubator at 37° C. and 5% CO2.
(§7) 5) The 96-well plate was stained with CCK-8, and The OD value was determined at λ=450 nm.
(§8) a) 10 μl of CCK-8 was added to each well, and incubated in the incubator for another 2-3 hrs.
(§9) b) The content was mixed uniformly by shaking gently on a shaker for 10 min, and the bubbles in the 96-well plate were removed.
(§10) 6) The inhibition rate in each group was calculated.

Assay [2] relates to Human hepatoma cell HepG2. In words: CCK-8 cell proliferation assay, HepG2. Conditions: HepG2 cells, CCK-8, 24 hrs with drug, OD 450 nm. As to the method: as §1, §2, §3, §4, §5, §6, §7, §8, §9, §10
Assay [3] relates to Human esophageal cancer cell TE-1. The assay can be described thus: CCK-8 cell proliferation assay, TE-1. Conditions: TE-1 cells, CCK-8, 24 hrs with drug, OD 450 nm. As to the method: as §1, §2, §3, §4, §5, §6, §7, §8, §9, §10
Assay [4] relates to Human gastric cancer cell MKN45. The assay can be described thus: CCK-8 cell proliferation assay, MKN-45. Conditions: MKN-45 cells, CCK-8, 24 hrs with drug, OD 450 nm. Here is the method: as §1, §2, §3, §4, §5, §6, §7, §8, §9, §10
(In general: Tetrazolium assays rely on reduction of a dye to a coloured formazan, in cell work by metabolically active cells.)

Assay [5] concerns Human colon cancer cell HCT-116. In words: CCK-8 cell proliferation assay, HCT116. Conditions: HCT116 cells, CCK-8, 24 hrs with drug, OD 450 nm. Here is the method: as §1, §2, §3, §4, §5, §6, §7, §8, §9, §10
The test system of assay [6] is Human multiple myeloma cell RPMI 8226. In words: CCK-8 cell proliferation assay, RPMI8226. Conditions: RPMI8226 cells, CCK-8, 24 hrs with drug, OD 450 nm. As to the method: as §1, §2, §3, §4, §5, §6, §7, §8, §9, §10
For assay [7], the system named is Human pancreatic cancer cell CFPAC-1. The assay can be described thus: CCK-8 cell proliferation assay, CFPAC-1. Conditions: CFPAC-1 cells, CCK-8, 24 hrs with drug, OD 450 nm. As to the method:
as §1, §2, §3, §4, §5, §6, §7, §8, §9, §10

The IC50 is the midpoint of a concentration-inhibition curve. High values mean weaker potency in that assay, low ones greater potency in that assay. As for `O=C(NCCCCCCC1CCN(C(=O)c2ccc[nH]2)C1)Nc1cccnc1` (stereo not shown) [BSS-TP112, 1-(6-(1-(2-pyrrolylformyl)pyrrolidin-3-yl)hexyl)-2-(3-pyridinyl)urea], the IC50 in assay [1] came to 52 nM; in assay [2], 81 nM; in assay [3] it was 93 nM; in assay [4], 59 nM; in assay [5], 78 nM; in assay [6], 42 nM. The molecule also gave an IC50 in assay [7] of 36 nM.
For the molecule `O=C(NCCCCCCC1CCN(C(=O)c2ccccc2)C1)Nc1ccnc(F)c1` (stereo not shown) [BSS-TP113], the IC50 was determined as 33 nM in assay [1]; 83 nM in assay [2]; 77 nM in assay [3]; 42 nM in assay [4]; 41 nM in assay [5]; 38 nM in assay [6]. The molecule further showed an IC50 in assay [7] of 38 nM.
On to `O=C(NCCCCCCC1CCN(C(=O)c2ccc[nH]2)C1)Nc1ccnc(F)c1` (stereo not shown) [BSS-TP114], for which the half-maximal inhibitory concentration (IC50) in assay [1] worked out at 49 nM; in assay [2] it was 72 nM; in assay [3] it was 76 nM; in assay [4], 51 nM; in assay [5], 85 nM; in assay [6], 39 nM. In assay [7], this molecule returned a half-inhibitory concentration (IC50) of 33 nM.
As for `O=C(NCCCCCCC1CCN(C(=O)c2ccco2)C1)Nc1ccnc(F)c1` (stereo not shown) [BSS-TP115], the IC50 came to 51 nM in assay [1]; 79 nM in assay [2]; 88 nM in assay [3]; 40 nM in assay [4]; 68 nM in assay [5]; 46 nM in assay [6]. The molecule further had an IC50 in assay [7] of 39 nM.
On to `O=C(NCCCCCCC1CCN(C(=O)c2cccs2)C1)Nc1ccnc(F)c1` (stereo not shown) [BSS-TP116], for which the IC50 in assay [1] stood at 39 nM; in assay [2] it was 81 nM; in assay [3], 69 nM; in assay [4], 79 nM; in assay [5], 83 nM; in assay [6], 31 nM. Further, the midpoint of inhibition in assay [7], the IC50, lay at 47 nM.
Consider `O=C(NCCCCCCC1CCN(C(=O)c2ccccc2)C1)Nc1cc(F)nc(F)c1` (stereo not shown) [BSS-TP117], for which the IC50 in assay [1] was 58 nM; in assay [2], 49 nM; in assay [3] it was 47 nM; in assay [4], 45 nM; in assay [5], 53 nM; in assay [6], 36 nM. This molecule registered an IC50 in assay [7] of 37 nM.
On to `O=C(NCCCCCCC1CCN(C(=O)c2ccco2)C1)Nc1cc(F)nc(F)c1` (stereo not shown) [BSS-TP118], for which the IC50 is 59 nM in assay [1]; 64 nM in assay [2]; 81 nM in assay [3]; 62 nM in assay [4]; 61 nM in assay [5]; 24 nM in assay [6]. In assay [7], this molecule displayed an IC50 of 42 nM.
With `O=C(NCCCCCCC1CCN(C(=O)c2cccs2)C1)Nc1cc(F)nc(F)c1` (stereo not shown) [BSS-TP119], the half-inhibitory concentration (IC50) was 72 nM in assay [1]; 83 nM in assay [2]; 87 nM in assay [3]; 61 nM in assay [4]; 50 nM in assay [5]; 43 nM in assay [6]. The same molecule returned an IC50 in assay [7] of 38 nM.
In the case of `O=C(NCCCCCCC1CCN(C(=O)c2ccc[nH]2)C1)Nc1cc(F)nc(F)c1` (stereo not shown) [BSS-TP120], the half-maximal inhibitory concentration (IC50) in assay [1] is 47 nM; in assay [2], 53 nM; in assay [3] it was 49 nM; in assay [4], 42 nM; in assay [5], 66 nM; in assay [6], 28 nM. The molecule further registered an IC50 in assay [7] of 35 nM.
For `O=C(NCCCCCCC1CCN(C(=O)c2cc3ccccc3[nH]2)C1)Nc1ccncc1` (stereo not shown) [BSS-TP121, 1-(6(1-(2-indolylformyl)pyrrolidin-3-yl)hexyl)-2-(4-pyridinyl)urea], the IC50 was 69 nM in assay [1]; 72 nM in assay [2]; 74 nM in assay [3]; 32 nM in assay [4]; 83 nM in assay [5]; 52 nM in assay [6]. Further, the IC50 in assay [7] worked out at 51 nM.
Consider `O=C(NCCCCCCC1CCN(C(=O)c2cc3ccccc3o2)C1)Nc1ccncc1` (stereo not shown) [BSS-TP122, 1-(6-(1-(2-benzofurylformyl)pyrrolidin-3-yl)hexyl)-2-(4-pyridinyl)urea], for which the IC50 came to 67 nM in assay [1]; 71 nM in assay [2]; 63 nM in assay [3]; 61 nM in assay [4]; 69 nM in assay [5]; 26 nM in assay [6]. For the same molecule, inhibition in assay [7] was half-maximal at 49 nM (IC50).
Take `O=C(NCCCCCCC1CCN(C(=O)c2cc3ccccc3[nH]2)C1)Nc1ccnc(F)c1` (stereo not shown) [BSS-TP123]: the IC50 was found to be 63 nM in assay [1]; 59 nM in assay [2]; 65 nM in assay [3]; 69 nM in assay [4]; 58 nM in assay [5]; 32 nM in assay [6]. Further, the IC50 in assay [7] came to 59 nM.
Turning to `O=C(NCCCCCCC1CCN(C(=O)c2cc3ccccc3o2)C1)Nc1ccnc(F)c1` (stereo not shown) [BSS-TP124], the IC50 came to 56 nM in assay [1]; 63 nM in assay [2]; 82 nM in assay [3]; 64 nM in assay [4]; 73 nM in assay [5]; 39 nM in assay [6]. In assay [7], this molecule had an IC50 of 42 nM.
In the case of `COc1cccc(OC)c1C(=O)N1CCC(CCCCCCNC(=O)Nc2cc(F)nc(F)c2)C1` (stereo not shown) [BSS-TP125], the IC50 in assay [1] turned out to be 46 nM; in assay [2] it was 52 nM; in assay [3] it was 43 nM; in assay [4], 57 nM; in assay [5], 49 nM; in assay [6], 28 nM. Besides, half-maximal inhibition in assay [7] (IC50) required 47 nM.
Regarding `COc1cccc(OC)c1C(=O)N1CCC(CCCCCCCNC(=O)Nc2ccncc2)C1` (stereo not shown) [BSS-TP126, 1-(7-(1-(2,6-dimethoxybenzoyl)pyrrolidin-3-yl)heptyl)-2-(4-pyridinyl) urea], the IC50 amounted to 55 nM in assay [1]; 92 nM in assay [2]; 88 nM in assay [3]; 32 nM in assay [4]; 63 nM in assay [5]; 33 nM in assay [6]. The same molecule registered an IC50 in assay [7] of 53 nM.
Consider `COc1cccc(OC)c1C(=O)N1CCC(CCCCNC(=O)Nc2ccncc2)C1` (stereo not shown) [BSS-TP127, 1-(4-(1-(2,6-dimethoxybenzoyl)pyrrolidin-3-yl)butyl)-2-(4-pyridinyl) urea], for which the IC50 stood at 75 nM in assay [1]; 102 nM in assay [2]; 135 nM in assay [3]; 109 nM in assay [4]; 76 nM in assay [5]; 34 nM in assay [6]. In assay [7], this molecule yielded an IC50 of 58 nM.
On to `O=C(NCCCCCCCC1CCN(C(=O)c2ccco2)C1)Nc1ccncc1` (stereo not shown) [BSS-TP128, 1-(7-(1-(furoyl)pyrrolidin-3-yl)heptyl)-2-(4-pyridinyl)urea], for which the IC50 was determined as 68 nM in assay [1]; 110 nM in assay [2]; 124 nM in assay [3]; 51 nM in assay [4]; 97 nM in assay [5]; 36 nM in assay [6]. The molecule also yielded an IC50 in assay [7] of 53 nM.
In the case of `O=C(NCCCCCCCC1CCN(C(=O)c2ccc[nH]2)C1)Nc1ccncc1` (stereo not shown) [BSS-TP129, 1-(7-(1-(2-pyrrolylformyl)pyrrolidin-3-yl)heptyl)-2-(4-pyridinyl)urea], the IC50 in assay [1] turned out to be 73 nM; in assay [2], 93 nM; in assay [3] it was 96 nM; in assay [4] it was 49 nM; in assay [5], 72 nM; in assay [6], 23 nM. This molecule came in with an IC50 in assay [7] of 28 nM.
`COc1cccc(OC)c1C(=O)N1CCC(CCCCCCCNC(=O)Nc2ccnc(F)c2)C1` (stereo not shown) [BSS-TP130]: the IC50 in assay [1] is 56 nM; in assay [2], 55 nM; in assay [3] it was 61 nM; in assay [4], 73 nM; in assay [5] it was 46 nM; in assay [6], 38 nM. In assay [7], this molecule came in with an IC50 of 43 nM.
In the case of `O=C(NCCCCCCCC1CCN(C(=O)c2ccccc2)C1)Nc1ccncc1` (stereo not shown) [BSS-TP131], the IC50 stood at 43 nM in assay [1]; 67 nM in assay [2]; 69 nM in assay [3]; 47 nM in assay [4]; 75 nM in assay [5]; 29 nM in assay [6]. The molecule further gave an IC50 in assay [7] of 36 nM.
On to `O=C(NCCCCCCCC1CCN(C(=O)c2ccccc2)C1)Nc1ccnc(F)c1` (stereo not shown) [BSS-TP132], for which the IC50 in assay [1] came out at 51 nM; in assay [2], 61 nM; in assay [3], 77 nM; in assay [4] it was 39 nM; in assay [5], 65 nM; in assay [6], 34 nM. The same molecule came in with an IC50 in assay [7] of 30 nM.
`O=C(/C=C/c1cccnc1)NCCCCC1CCN(C(=O)c2ccccc2)CC1` [FK866, reference compound]: the IC50 in assay [1] was 37 nM; in assay [2], 99 nM; in assay [3] it was 112 nM; in assay [4], 39 nM; in assay [5], 92 nM; in assay [6], 20 nM. The half-maximal inhibitory concentration (IC50) in assay [7] came out at 37 nM.
